Experimental findings from US3989835A, “Method of using 6-substituted amino phenyl-2,3,5,6-tetra-hydro[2,1-b]thiazoles for controlling gastrointestinal nematodes” (American Cyanamid Company, priority 1974, dated 1976) are described below.

One data set deals with Nematospiroides dubius. Nature of the data set: Anthelmintic efficacy against N. dubius in mice, single oral dose. The class given is in vivo, Nematospiroides dubius (in albino female mice). The conditions noted are these: Heligmosomoides polygyrus, po; for inhibition in vivo at 4 mg/kg: single oral dose 4.0 mg./Kg.; for inhibition in vivo at 10 mg/kg: single oral dose 10 mg./Kg.; for inhibition in vivo at 5 mg/kg: single oral dose 5.0 mg./Kg.; for inhibition in vivo at 20 mg/kg: single oral dose 20 mg./Kg.; for inhibition in vivo at 2 mg/kg: single oral dose 2.0 mg./Kg. The method, then:
Albino female mice are each inoculated with about 20 infectious larvae of Nematospiroides dubius. This nematode is a representative of the economical important trichostrongylis worms of ruminants and other hosts, and of nematodes in general. Twenty-two days after inoculation, groups of four randomly selected mice containing adult N. dubius are given single oral doses of test compounds dissolved or suspended in 0.4 ml. of water per 20 gram mouse. At 26 or 27 days after inoculation, treated mice and in each test four randomly selected groups of untreated mice are necropsied. The number of worms in the small intestine of each mouse are determined by microscopic examination. Average worm numbers for each treated group and for the untreated controls are computed and the percent efficacy determined by the customary formula:
(Average Worms in Control - Average Worms in Treated)/(Average Worms in Control) X 100.

Another data set in a line: in vivo. The conditions noted are these: for Approx. LD50 /ED50: chemotherapeutic index, mouse oral, N. dubius; for LD50: mouse, in vivo, po; for Dead/Total: mice. From the text:
Data on the acute oral toxicity to mice of various single oral doses of the above compounds and several analogs were obtained by conventional procedures, (Table IX hereinafter).

Setting [1] is: continuation of Table X (R1/R4 disubstituted), read-out: ED50.
[2] abbreviates: mouse oral, Table IX, read-out: Approx. ED50 vs. N. dubius.
The mark [3] stands for this setting: molar-adjusted, read-out: Percent Nematospiroides Activity.
Setting [4] is: Approx. LD50, mouse oral, Table IX.
The mark [5] stands for this setting: LD50, mice, adjusted to molar equivalents of tetramisole free base.
The mark [6] stands for this setting: as Base, single oral dose, mice, > indicates inactive at dose shown, read-out: Approx. ED50.

SMILES strings stand for the structures. Where a name gives a salt, the structure may show the parent alone. Read-outs that look alike come from different tables or passages of the source.

Turning to `Nc1ccc(Br)c(C2CN3CCSC3=N2)c1` (racemic) [R1 =H R4 =Br, dl-6-(5-amino-2-bromophenyl)-2,3,5,6-tetrahydroimidazo[2,1-b]thiazole, dihydrochloride], the ED50 with Nematospiroides dubius (setting [1]) and in the data set on Nematospiroides dubius (setting [2]) was 5 mg/kg each time. Besides, the inhibition in vivo at 4 mg/kg in the data set on Nematospiroides dubius (setting [3]) was determined as 43%. In addition, in the data set on Nematospiroides dubius (setting [3]), the inhibition in vivo at 10 mg/kg stood at 100%. Further, the “Approx. LD50 /ED50” value in “in vivo” (Table IX) came to 8. In addition, the results for the LD50 in “in vivo” (setting [4]) and in the data set “in vivo” (setting [5]) were 40 mg/kg and about 50 mg/kg, respectively. The Dead/Total in “in vivo” (single oral dose 20 Mg./Kg.) was 0/6; in the data set “in vivo” (single oral dose 40 Mg./Kg.) it was 2/6; in the data set “in vivo” (single oral dose 80 Mg./Kg.), 6/6.
For `CC(C)(C)C(=O)Nc1cccc(C2CN3CCSC3=N2)c1` (racemic) [m-NH--CO--C(CH3)3 dl], the ED50 with Nematospiroides dubius (setting [6]) and in the data set with Nematospiroides dubius (setting [2]) was 3 mg/kg throughout. Moreover, the inhibition in vivo at 5 mg/kg in the data set on Nematospiroides dubius (setting [3]) is 75%. The inhibition in vivo at 10 mg/kg with Nematospiroides dubius (setting [3]) was 88%. In addition, the inhibition in vivo at 20 mg/kg in the data set with Nematospiroides dubius (setting [3]) turned out to be 100%. In addition, the “Approx. LD50 /ED50” value in the data set “in vivo” (Table IX) was 33. In addition, the LD50 (in general, the dose at which mortality reaches 50%) in the data set “in vivo” (setting [4]) was 100 mg/kg; in “in vivo” (setting [5]), about 100 mg/kg. In addition, the Dead/Total was 0/6 in “in vivo” (single oral dose 50 Mg./Kg.), 2/6 in the data set “in vivo” (single oral dose 100 Mg./Kg.) and 5/6 in the data set “in vivo” (single oral dose 200 Mg./Kg.).
Regarding `Nc1ccc([N+](=O)[O-])c(C2CN3CCSC3=N2)c1` (stereo not drawn) [R1 =H R4 =NO2], the median effective dose (ED50) with Nematospiroides dubius (setting [1]) and in the data set with Nematospiroides dubius (setting [2]) was 2 mg/kg each time. Further, the inhibition in vivo at 2 mg/kg in the data set with Nematospiroides dubius (setting [3]) is 43%. Also, the inhibition in vivo at 4 mg/kg with Nematospiroides dubius (setting [3]) worked out at 89%. Besides, the inhibition in vivo at 10 mg/kg with Nematospiroides dubius (setting [3]) turned out to be 100%. In addition, the “Approx. LD50 /ED50” value in the data set “in vivo” (Table IX) is given as 60. Moreover, the LD50 in the data set “in vivo” (setting [4]) is 120 mg/kg; in “in vivo” (setting [5]) it was 120 to 140 mg/kg. In addition, the Dead/Total was 0/6 in the data set “in vivo” (single oral dose 60 Mg./Kg.), 2/6 in the data set “in vivo” (single oral dose 120 Mg./Kg.) and 6/6 in the data set “in vivo” (single oral dose 240 Mg./Kg.).
With `O=C(Nc1cccc(C2CN3CCSC3=N2)c1)c1ccc(Cl)c(Cl)c1` (stereo not drawn) [Table XII b1854], the inhibition in vivo at 0.625 mg/kg with Nematospiroides dubius (single oral dose 0.625 mg./Kg., adjusted to molar equivalents of tetramisole free base, read-out: Percent Nematospiroides Activity) was 58%. Also, in the data set with Nematospiroides dubius (single oral dose 1.25 mg./Kg., molar-adjusted, read-out: Percent Nematospiroides Activity), the inhibition in vivo at 1.25 mg/kg was 52%. In the data set with Nematospiroides dubius (setting [3]), the inhibition in vivo at 2 mg/kg is 92% and the inhibition in vivo at 5 mg/kg came to 95%. Also, the LD50 in the data set “in vivo” (setting [5]) was 80 to 100 mg/kg.
Take `CC(C)C(=O)Nc1cccc(C2CN3CCSC3=N2)c1.Cl` (stereo not drawn) [m-NH--CO--CH(CH3)2 dl, 3'-(2,3,5,6-tetrahydroimidazo[2,1-b]thiazol-6-yl)isobutyranilide hydrochloride]: the ED50 in the data set with Nematospiroides dubius (setting [6]) and with Nematospiroides dubius (setting [2]) was 3 mg/kg throughout. Moreover, the inhibition in vivo at 5 mg/kg in the data set with Nematospiroides dubius (setting [3]) worked out at 99%. In addition, the inhibition in vivo at 10 mg/kg in the data set on Nematospiroides dubius (setting [3]) was determined as 100%. Moreover, the inhibition in vivo at 20 mg/kg with Nematospiroides dubius (setting [3]) stood at 100%. In the data set “in vivo” (Table IX), the “Approx. LD50 /ED50” value was determined as 20. Besides, the results for the LD50 in the data set “in vivo” (setting [4]) and in the data set “in vivo” (setting [5]) were about 60 mg/kg and about 75 mg/kg, respectively. In addition, the results for the Dead/Total in “in vivo” (single oral dose 40 Mg./Kg.), in “in vivo” (single oral dose 80 Mg./Kg.) and in the data set “in vivo” (single oral dose 120 Mg./Kg.) were 1/6, 5/6 and 6/6, respectively.
Consider `COC(=O)Nc1cccc(C2CN3CCSC3=N2)c1` (racemic) [m-NH-CO-OCH3 dl, dl-m-(2,3,5,6-tetrahydroimidazo[2,1-b]thiazol-6-yl)carbanilic acid methyl ester, hydrochloride], for which the ED50 with Nematospiroides dubius (setting [6]) and with Nematospiroides dubius (setting [2]) was 15 mg/kg throughout. Further, the inhibition in vivo at 10 mg/kg with Nematospiroides dubius (setting [3]) was determined as 25%. Besides, the inhibition in vivo at 20 mg/kg in the data set with Nematospiroides dubius (setting [3]) worked out at 96%. Also, in the data set with Nematospiroides dubius (single oral dose 40 mg./Kg., molar-adjusted, read-out: Percent Nematospiroides Activity), the inhibition in vivo at 40 mg/kg turned out to be 100%. Moreover, in “in vivo” (Table IX), the “Approx. LD50 /ED50” value is 10. Further, the values for the LD50 in “in vivo” (setting [4]) and in the data set “in vivo” (setting [5]) were 150 mg/kg and about 125 mg/kg, respectively. The Dead/Total in “in vivo” (single oral dose 50 Mg./Kg.) was 0/5; in “in vivo” (single oral dose 100 Mg./Kg.), 0/5; in “in vivo” (single oral dose 150 Mg./Kg.), 3/5; in “in vivo” (single oral dose 200 Mg./Kg.), 5/5.
Regarding `CC(=O)Nc1ccc(Br)c(C2CN3CCSC3=N2)c1` (racemic) [R1 =COCH3 R4 =Br], the ED50 in the data set with Nematospiroides dubius (setting [1]) and with Nematospiroides dubius (setting [2]) was 30 mg/kg each time. Besides, the LD50 in the data set “in vivo” (setting [4]) was over 100 mg/kg.
